Measured values as given in patent publication US20220177538A1, “CO-AGONISTS AT GLP-1 AND GIP RECEPTORS SUITABLE FOR ORAL DELIVERY” (Novo Nordisk A/S, priority 2020, published 2022).
Like-named read-outs stand apart in the source and are kept apart here. Starred links: 1 amine or outer side, 2 acyl side, 3 side chain; linkers in the order of their positions; H or OH if unused. Non-standard residues stand in square brackets, D forms with d. Residues, ends and D or L forms follow the SMILES beside them. Groups on a side chain read outwards from the residue. *: point of attachment. C18 diacid = O=C(O)CCCCCCCCCCCCCCCCC(=O)*; C16 diacid = O=C(O)CCCCCCCCCCCCCCC(=O)*; γGlu = O=C(O)[C@H](CCC(=O)[*:2])N[*:1]; εLys = N[C@@H](CCCCN[*:1])C(=O)[*:2]; AEEA = NCCOCCOCC(=O)O; Aib = CC(C)(N)C(=O)O

Legend:
[1] = molecular target: human GLP-1 receptor (Homo sapiens, UniProt P43220); assay: In vitro functional potency, CRE luciferase reporter, whole BHK cells (hGLP-1R); format: cell-based; parameters: expressed in transfected cells; host or cells: BHK (parent line BHKTS13), clone BHK CRE luc2P hGLP-1R; details: BHK CRE luc2P hGLP-1R cells
In short: (§1)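 BHK CRE luc2P cells stably expressing hGIPR or hGLP-1R were seeded at 5000 cells/well overnight. They were treated 3 h at 37° C with a 12-point, 3.5-fold compound series in buffer with or without HSA, and luciferase luminescence was read. Values come from log(agonist)-response regression, averaging at least two replicates.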

[2] = molecular target: T1, human GIP receptor (Homo sapiens, UniProt P48546); assay: In vitro functional potency, CRE luciferase reporter, whole BHK cells (hGIPR); format: cell-based; details: BHK CRE luc2P hGIPR cells
T1 construct: expressed in transfected cells; host or cells: BHK (parent line BHKTS13), clone BHK CRE luc2P hGIPR
T1 sequence (P48546 22-466): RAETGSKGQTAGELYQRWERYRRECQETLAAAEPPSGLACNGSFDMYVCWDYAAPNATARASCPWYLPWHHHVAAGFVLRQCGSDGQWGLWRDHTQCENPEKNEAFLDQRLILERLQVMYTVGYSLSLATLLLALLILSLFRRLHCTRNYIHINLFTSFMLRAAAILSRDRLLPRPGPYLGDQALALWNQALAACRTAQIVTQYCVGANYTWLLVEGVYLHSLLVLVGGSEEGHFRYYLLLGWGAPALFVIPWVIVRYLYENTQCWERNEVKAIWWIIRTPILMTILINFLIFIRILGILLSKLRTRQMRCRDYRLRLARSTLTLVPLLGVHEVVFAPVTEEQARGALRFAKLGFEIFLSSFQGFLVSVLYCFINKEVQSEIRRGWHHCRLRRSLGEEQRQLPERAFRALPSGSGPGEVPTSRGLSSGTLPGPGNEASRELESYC
In short: as §1

[3] = 0% HSA, read-out: hGLP-1R, CRE Luc 0% HSA EC50
[4] = hGLP-1R, CRE Luc 1% HSA EC50, 1% HSA
[5] = 0% HSA, read-out: hGIPR, CRE Luc 0% HSA EC50
[6] = hGIPR, CRE Luc 1% HSA EC50, 1% HSA

Sequence of human GLP-1 receptor (P43220 24-463): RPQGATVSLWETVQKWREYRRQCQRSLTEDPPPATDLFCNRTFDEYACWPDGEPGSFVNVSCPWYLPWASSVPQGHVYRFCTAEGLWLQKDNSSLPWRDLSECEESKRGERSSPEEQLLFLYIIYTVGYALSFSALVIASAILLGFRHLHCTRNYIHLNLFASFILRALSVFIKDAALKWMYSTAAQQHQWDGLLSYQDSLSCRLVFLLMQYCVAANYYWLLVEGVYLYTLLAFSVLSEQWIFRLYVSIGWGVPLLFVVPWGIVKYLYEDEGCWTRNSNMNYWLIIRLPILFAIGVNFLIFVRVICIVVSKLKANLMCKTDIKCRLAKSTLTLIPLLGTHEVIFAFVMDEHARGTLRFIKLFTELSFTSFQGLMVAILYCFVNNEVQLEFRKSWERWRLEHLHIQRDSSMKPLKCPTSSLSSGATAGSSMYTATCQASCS

Row | SMILES | EC50 [1, 3] | EC50 [1, 4] | EC50 [2, 5] | EC50 [2, 6]
1 | CC[C@H](C)[C@H](NC(=O)[C@H](Cc1ccccc1)NC(=O)[C@H](CCC(=O)O)NC(=O)[C@H](CCCNC(=N)N)NC(=O)[C@H](C)NC(=O)[C@H](C)NC(=O)[C@H](CCC(N)=O)NC(=O)[C@H](CCC(=O)O)NC(=O)[C@H](CCC(=O)O)NC(=O)[C@H](CC(C)C)NC(=O)[C@H](CC(C)C)NC(=O)[C@@H](NC(=O)[C@H](CO)NC(=O)[C@H](Cc1ccc(O)cc1)NC(=O)[C@H](CC(=O)O)NC(=O)[C@H](CO)NC(=O)[C@@H](NC(=O)[C@H](Cc1ccccc1)NC(=O)[C@@H](NC(=O)CNC(=O)[C@H](CCC(=O)O)NC(=O)C(C)(C)NC(=O)[C@@H](N)Cc1ccc(O)cc1)[C@@H](C)O)[C@@H](C)O)[C@@H](C)CC)C(=O)N[C@@H](CC(N)=O)C(=O)N[C@@H](Cc1c[nH]c2ccccc12)C(=O)N[C@@H](CC(C)C)C(=O)N[C@@H](CC(C)C)C(=O)N[C@@H](C)C(=O)NCC(=O)NCC(=O)N1CCC[C@H]1C(=O)N[C@@H](CO)C(=O)N[C@@H](CCCCNC(=O)[C@@H](N)CCCCNC(=O)[C@@H](N)CCCCNC(=O)CC[C@H](NC(=O)CCCCCCCCCCCCCCCCC(=O)O)C(=O)O)C(=O)NCC(=O)N[C@@H](C)C(=O)N1CCC[C@H]1C(=O)N1CCC[C@H]1C(=O)N1CCC[C@H]1C(=O)N[C@@H](CO)C(=O)O [Compound 44] (H-Y[Aib]EGTFTSDYSILLEEQAAREFINWLLAGGPSK([εLys-εLys-γGlu-C18 diacid])GAPPPS-OH) | 0.0042 nM | 0.241 nM | 0.0057 nM | 0.365 nM
2 | CC[C@H](C)[C@H](NC(=O)[C@H](Cc1ccccc1)NC(=O)[C@H](CCC(=O)O)NC(=O)[C@H](CCCNC(=N)N)NC(=O)[C@H](C)NC(=O)[C@H](C)NC(=O)[C@H](CCC(N)=O)NC(=O)[C@H](CCC(=O)O)NC(=O)[C@H](CCC(=O)O)NC(=O)[C@H](CC(C)C)NC(=O)[C@H](CC(C)C)NC(=O)[C@@H](NC(=O)[C@H](CO)NC(=O)[C@H](Cc1ccc(O)cc1)NC(=O)[C@H](CC(=O)O)NC(=O)[C@H](CO)NC(=O)[C@@H](NC(=O)[C@H](Cc1ccccc1)NC(=O)[C@@H](NC(=O)CNC(=O)[C@H](CCC(=O)O)NC(=O)C(C)(C)NC(=O)[C@@H](N)Cc1ccc(O)cc1)[C@@H](C)O)[C@@H](C)O)[C@@H](C)CC)C(=O)N[C@@H](CCC(=O)O)C(=O)N[C@@H](Cc1c[nH]c2ccccc12)C(=O)N[C@@H](CC(C)C)C(=O)N[C@@H](CC(C)C)C(=O)N[C@@H](C)C(=O)NCC(=O)NCC(=O)N1CCC[C@H]1C(=O)N[C@@H](CO)C(=O)N[C@@H](CCCCNC(=O)COCCOCCNC(=O)COCCOCCNC(=O)CC[C@H](NC(=O)CCCCCCCCCCCCCCCCC(=O)O)C(=O)O)C(=O)NCC(=O)N[C@@H](C)C(=O)N1CCC[C@H]1C(=O)N1CCC[C@H]1C(=O)N1CCC[C@H]1C(=O)N[C@@H](CO)C(=O)O [Compound 45] (H-Y[Aib]EGTFTSDYSILLEEQAAREFIEWLLAGGPSK([AEEA-AEEA-γGlu-C18 diacid])GAPPPS-OH) | 0.0039 nM | 1.58 nM | 0.0038 nM | 1.22 nM
3 | CC[C@H](C)[C@H](NC(=O)[C@H](Cc1ccccc1)NC(=O)[C@H](CCC(=O)O)NC(=O)[C@H](CCCNC(=N)N)NC(=O)[C@H](C)NC(=O)[C@H](C)NC(=O)[C@H](CCC(N)=O)NC(=O)[C@H](CCC(=O)O)NC(=O)[C@H](CCC(=O)O)NC(=O)[C@H](CC(C)C)NC(=O)[C@H](CC(C)C)NC(=O)[C@@H](NC(=O)[C@H](CO)NC(=O)[C@H](Cc1ccc(O)cc1)NC(=O)[C@H](CC(=O)O)NC(=O)[C@H](CO)NC(=O)[C@@H](NC(=O)[C@H](Cc1ccccc1)NC(=O)[C@@H](NC(=O)CNC(=O)[C@H](CCC(=O)O)NC(=O)C(C)(C)NC(=O)[C@@H](N)Cc1ccc(O)cc1)[C@@H](C)O)[C@@H](C)O)[C@@H](C)CC)C(=O)N[C@@H](CCC(=O)O)C(=O)N[C@@H](Cc1c[nH]c2ccccc12)C(=O)N[C@@H](CC(C)C)C(=O)N[C@@H](CC(C)C)C(=O)N[C@@H](C)C(=O)NCC(=O)NCC(=O)N1CCC[C@H]1C(=O)N[C@@H](CO)C(=O)N[C@@H](CCCCNC(=O)[C@@H](N)CCCCNC(=O)[C@@H](N)CCCCNC(=O)CC[C@H](NC(=O)CCCCCCCCCCCCCCC(=O)O)C(=O)O)C(=O)NCC(=O)N[C@@H](C)C(=O)N1CCC[C@H]1C(=O)N1CCC[C@H]1C(=O)N1CCC[C@H]1C(=O)N[C@@H](CO)C(=O)O [Compound 46] (H-Y[Aib]EGTFTSDYSILLEEQAAREFIEWLLAGGPSK([εLys-εLys-γGlu-C16 diacid])GAPPPS-OH) | 0.0015 nM | 0.111 nM | 0.0018 nM | 0.097 nM
4 | CC[C@H](C)[C@H](NC(=O)[C@H](Cc1ccccc1)NC(=O)[C@H](CCC(=O)O)NC(=O)[C@H](CCCNC(=N)N)NC(=O)[C@H](C)NC(=O)[C@H](C)NC(=O)[C@H](CCC(N)=O)NC(=O)[C@H](CCC(=O)O)NC(=O)[C@H](CCC(=O)O)NC(=O)[C@H](CC(C)C)NC(=O)[C@H](CC(C)C)NC(=O)[C@@H](NC(=O)[C@H](CO)NC(=O)[C@H](Cc1ccc(O)cc1)NC(=O)[C@H](CC(=O)O)NC(=O)[C@H](CO)NC(=O)[C@@H](NC(=O)[C@H](Cc1ccccc1)NC(=O)[C@@H](NC(=O)CNC(=O)[C@H](CCC(=O)O)NC(=O)C(C)(C)NC(=O)[C@@H](N)Cc1ccc(O)cc1)[C@@H](C)O)[C@@H](C)O)[C@@H](C)CC)C(=O)N[C@@H](CCC(=O)O)C(=O)N[C@@H](Cc1c[nH]c2ccccc12)C(=O)N[C@@H](CC(C)C)C(=O)N[C@@H](CC(C)C)C(=O)N[C@@H](C)C(=O)NCC(=O)NCC(=O)N1CCC[C@H]1C(=O)N[C@@H](CO)C(=O)N[C@@H](CCCCNC(=O)COCCOCCNC(=O)COCCOCCNC(=O)CC[C@H](NC(=O)CCCCCCCCCCCCCCC(=O)O)C(=O)O)C(=O)NCC(=O)N[C@@H](C)C(=O)N1CCC[C@H]1C(=O)N1CCC[C@H]1C(=O)N1CCC[C@H]1C(=O)N[C@@H](CO)C(=O)O [Compound 47] (H-Y[Aib]EGTFTSDYSILLEEQAAREFIEWLLAGGPSK([AEEA-AEEA-γGlu-C16 diacid])GAPPPS-OH) | 0.0021 nM | 0.154 nM | 0.0031 nM | 0.156 nM
